From patent US20230263782A1, “ORAL FORMULATIONS AND USES THEREOF” (INVENTISBIO CO., LTD., priority 2020, published 2023)
≈ marks a conversion by molar mass, not a printed value. Where a name gives a salt, the structure may show the parent alone. Read-outs that look alike come from different tables or passages of the source.

Legend:
ER = target: T1, ER (Homo sapiens, UniProt P03372); details: clinical samples, intramuscular injection monthly; cited from earlier work
T1 sequence (P03372 1-595): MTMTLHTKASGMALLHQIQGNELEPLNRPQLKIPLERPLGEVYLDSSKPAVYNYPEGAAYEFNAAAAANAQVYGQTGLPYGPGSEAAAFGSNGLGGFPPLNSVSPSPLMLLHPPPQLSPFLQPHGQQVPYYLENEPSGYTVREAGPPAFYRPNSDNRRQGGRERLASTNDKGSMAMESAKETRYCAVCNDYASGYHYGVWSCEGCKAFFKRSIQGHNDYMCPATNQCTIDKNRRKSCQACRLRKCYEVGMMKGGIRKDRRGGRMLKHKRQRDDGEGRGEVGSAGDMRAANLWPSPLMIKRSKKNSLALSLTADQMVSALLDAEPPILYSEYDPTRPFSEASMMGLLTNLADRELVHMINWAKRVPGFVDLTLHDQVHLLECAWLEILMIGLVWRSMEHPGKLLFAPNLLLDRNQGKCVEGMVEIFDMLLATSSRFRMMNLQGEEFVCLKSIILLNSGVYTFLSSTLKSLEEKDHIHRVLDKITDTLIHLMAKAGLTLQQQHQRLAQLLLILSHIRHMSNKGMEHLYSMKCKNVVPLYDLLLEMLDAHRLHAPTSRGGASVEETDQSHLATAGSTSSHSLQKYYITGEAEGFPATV

[1] = Solubility test in pH 1.2 or pH 6.8 buffer (saturated solutions, HPLC; remaining solids by XRPD); type: physicochemical; details: for Stability in buffer solution (HPLC): pH 1.2 buffer solution; for solubility at 30 min / Solubility at 24 h: room temperature; for XRPD patterns at 24 h: remaining solid
Description: For solubility test: About 20 mg of Compound FA, L-lysine salt and meglumine salt (Form I) were weighed into vials, added 3 mL of pH1.2 or pH 6.8 buffer to make saturated solutions. All suspensions were kept shaking with 200 rpm at room temperature for up to 24 hours. […] At 24 hours, remaining solids were collected and determined by XRPD.

[2] = Solubility in water (statement); type: physicochemical
[3] = Dynamic moisture sorption analysis (DVS), XRPD before and after; type: physicochemical; details: FIG. 5A
Description: Dynamic moisture sorption analysis (DVS): DVS was determined using IGAsorp (Hiden Isochema, UK). The sample was tested at a targeted RH (relative humidity) of 10 to 90% full cycle in step mode. The analysis was performed in 10% RH increments.

ER+ breast cancer cells = details: as discussed in WO2017/136688; cited from earlier work
[4] = Solid stability test at 40° C./75% RH for 8 days (HPLC, XRPD); type: physicochemical; details: for Solid stability: 40° C./75% RH for 8 days, HPLC and XRPD; for Purity at 8 days / Purity at 0 day: HPLC; for Purity at 8 days: after 40° C./75% RH for 8 days; for Purity at 0 day: start of 40° C./75% RH storage
Description: HPLC ANALYSIS: a representative HPLC method is shown below, which can be used, for example, to analyze the purity, solubility, and stability of the salts herein.
For stability test: About 20 mg of Compound FA, L-lysine salt and meglumine salt (Form I) were weighed into vials, and put at the condition of 40° C./75% RH for 8 days. At 0 and 8 days, the solid sample was dissolved using acetonitrile/water (1/1) to make a solution with the concentration of 0.2 mg/mL. Sample solutions were analyzed by HPLC and solid samples were examined by XRPD.

[5] = compared with fulvestrant, GDC-0810 and AZD9496; WO2017/136688; cited from earlier work
[6] = Physical treatment (grinding) of Form I; type: physicochemical; details: grinded for 2 min and 5 min
Description: Physical treatment of Form I: Form I of meglumine salt was grinded for 2 min and 5 min. After grinding, the crystallinity declined, but the crystal form was still Form I.

[7] = Meglumine salt form interconversion study (slurry in IPA or water, XRPD); type: physicochemical; details: Water
Description: Interconversion study: Interconversion studies were carried out by mixing the same amount of different form solids in IPA or water, respectively. Suspensions were kept stirring at room temperature and 60° C. for several days, during which suspensions were filtrated and analyzed by XRPD.

[8] = Solid stability test of Form I at 25° C./92.5% RH for 10 days (XRPD); type: physicochemical
Description: Solid stability test of Form I at 92.5% RH for 10 days: About 20 mg of meglumine salt Form I was put into the condition of 25° C./92.5% RH for 10 days. At 10 days, the sample was analyzed by XRPD.

[9] = pH 1.2 buffer, calculated with the sum of impurities and major peak area

Stability in buffer solution (HPLC) [1] | Solubility at 24 h [1, 9] [µg/mL] | Solubility at 24 h ([1]; pH 6.8 buffer) [µg/mL] | XRPD patterns at 24 h ([1]; pH 1.2 buffer) | XRPD patterns at 24 h ([1]; pH 6.8 buffer) | Solid stability [4] | Purity at 8 days [4] [Area %] | Purity at 0 day [4] [Area %] | SMILES | further results
– | – | – | – | – | – | – | – | C[C@]12CC[C@@H]3c4ccc(O)cc4C[C@@H](CCCCCCCCC[S+]([O-])CCCC(F)(F)C(F)(F)F)[C@H]3[C@@H]1CC[C@@H]2O (some centres unmarked) [fulvestrant] | ER degradation (ER): ~50%
unstable | 267 (≈ 562 µM) | 3 (≈ 6.31 µM) | Low crystallinity | Low crystallinity | physically and chemically stable | 96.31 | 98.02 | C[C@@H]1Cc2c([nH]c3ccccc23)[C@@H](c2c(Cl)cc(/C=C/C(=O)O)cc2Cl)N1CC(C)(C)F [Compound FA, (E)-3-(3,5-dichloro-4-((1R,3R)-2-(2-fluoro-2-methylpropyl)-3-methyl-2,3,4,9-tetrahydro-1H-pyrido[3,4-b]indol-1-yl)phenyl)acrylic acid] | solubility at 30 min ([1]; pH 1.2 buffer, pH 1.2, simulated gastric fluid, thermodynamic from solid, pH 1.2 buffer, calculated with the sum of impurities and major peak area, read-out: Solubility at 30 min): 571 µg/mL (≈ 1200 µM); solubility at 30 min ([1]; pH 6.8 buffer): 14 µg/mL (≈ 29.4 µM); Solubility in water [2]: practically insoluble in water; Solid form before and after DVS studies (XRPD) [3]: did not change; growth of ER+ breast cancer cells (ER+ breast cancer cells): inhibited the growth of ER+ breast cancer cells; human hepatocyte clearance [5]: better human hepatocyte clearance
unstable | 1612 | 17 | No change | Low crystallinity | physically and chemically stable | 99.66 | 99.68 | C[C@@H]1Cc2c([nH]c3ccccc23)[C@@H](c2c(Cl)cc(/C=C/C(=O)O)cc2Cl)N1CC(C)(C)F [Meglumine salt, meglumine (E)-3-(3,5-dichloro-4-((1R,3R)-2-(2-fluoro-2-methylpropyl)-3-methyl-2,3,4,9-tetrahydro-1H-pyrido[3,4-b]indol-1-yl)phenyl acrylate] | solubility at 30 min [1, 9]: 296 µg/mL; solubility at 30 min ([1]; pH 6.8 buffer, pH 6.8, aqueous buffer, thermodynamic from solid, pH 6.8 buffer, read-out: Solubility at 30 min): 20 µg/mL; Crystal form after grinding [6]: still Form I; Final crystal form ([7]; 25° C.): Dihydrate; Final crystal form ([7]; 60° C.): Form I; Crystal form after storage (XRPD) [8]: remained unchanged
